Measurements as given in patent US20130324404A1, “1, 8 -DIAZASPIRO [4.5] DECANE- 2, 4 -DIONE DERIVATIVES USEFUL AS PESTICIDES” (SYNGENTA PARTICIPATIONS AG, priority 2010, published 2013).

Tests used:
[1] = system: Myzus persicae (green peach aphid); test: Example B1: Activity against Myzus persicae, mixed population, feeding/residual contact activity, preventive (sunflower leaf discs); type: in vivo; details: foliar, 144 h, sprayed sunflower leaf discs, 6 days incubation
Experimental: (§1) Activity Against Myzus persicae (Green Peach Aphid)
(§2) (Mixed Population, Feeding/Residual Contact Activity, Preventive)
Sunflower leaf discs are placed on agar in a 24-well microtiter plate and sprayed with test solutions. After drying, the leaf discs are infested with an aphid population of mixed ages. After an incubation period of 6 days, samples are checked for mortality and special effects (e.g. phytotoxicity).

[2] = system: Myzus persicae (green peach aphid); test: Example B2: Activity against Myzus persicae, mixed population, systemic/feeding activity, curative (pea seedlings); type: in vivo; details: 144 h, roots of infested pea seedlings in test solution, 6 days, systemic
From the text: as §1
(Mixed Population, Systemic/Feeding Activity, Curative)
Roots of pea seedlings, infested with an aphid population of mixed ages, are placed directly in the test solutions. 6 days after introduction, samples are checked for mortality and special effects on the plant.

[3] = system: Myzus persicae (green peach aphid); test: Example B5: Activity against Myzus persicae, mixed population, feeding/residual contact activity (infested cabbage plants, spray chamber); type: in vivo; details: 144 h, infested cabbage plants sprayed, 6 days after treatment
Experimental: as §1
(§3) (Mixed Population, Feeding/Residual Contact Activity, Plant Damage Evaluation)
(§4) Cabbage plants infested with a mixed population of Myzus persicae are treated with diluted test solutions of the compounds in a spray chamber. 6 days after treatment, samples are checked for mortality and for plant damage (phytotoxicity), visual assessment being made using a 0-100% rating scale (100%=total damage to plant; 0%=no damage to plant). In this test, compounds listed in the tables above show good activity against Myzus persicae and acceptable plant compatibility. For example compounds P1.1, P1.2, P1.3, P1.4, P1.6, P1.7, P1.8, P1.9, P1.10, P1.11 and P1.12 show an activity of greater or equal to 80% against Myzus persicae and damage to cabbage plants less or equal to 10% at a concentration of 200 ppm.

cabbage plants = details: in vivo, 6 days, 200 ppm
Experimental: as §1, §3, §4

[4] = system: Tetranychus urticae (two-spotted spider mite); test: whole plant or invertebrate; type: in vivo; details: foliar, 192 h, read-out: activity (egg, larval and adult mortality) against Tetranychus urticae
From the text: Activity Against Tetranychus urticae (Two-Spotted Spider Mite)
as §2
Bean leaf discs on agar in 24-well microtiter plates are sprayed with test solutions. After drying, the leaf discs are infested with mite populations of mixed ages. 8 days later, discs are checked for egg mortality, larval mortality, and adult mortality.

[5] = system: Thrips tabaci (onion thrips); test: Example B3: Activity against Thrips tabaci, mixed population, feeding/residual contact activity, preventive (sunflower leaf discs); type: in vivo; details: foliar, 144 h, sprayed sunflower leaf discs, 6 days incubation
Experimental: Activity Against Thrips tabaci (Onion Thrips)
as §2
Sunflower leaf discs are placed on agar in a 24-well microtiter plate and sprayed with test solutions. After drying, the leaf discs are infested with a thrips population of mixed ages. After an incubation period of 6 days, samples are checked for mortality and special effects (e.g. phytotoxicity).

| Compound | mortality at 200 ppm [3] [%] | damage to cabbage plants (phytotoxicity), 0-100% rating scale (cabbage plants) [%] | melting point | further results |
| --- | --- | --- | --- | --- |
| CON1CCC2(CC1)C(=O)C(Cl)(c1c(C)cc(C)cc1C)C(=O)N2OCC1CCOCC1 (centres unmarked) [Compound P1.10] | ≥ 80 | ≤ 10 |  | mortality at 400 ppm [1]: > 80%; mortality at 400 ppm [2]: > 80% |
| COCCON1C(=O)C(Cl)(c2cc(-c3ccc(Cl)cc3)c(F)cc2C)C(=O)C12CCN(OC)CC2 (centres unmarked) [Compound P1.13] |  |  |  | mortality at 400 ppm [4]: > 80% |
| COCON1C(=O)C(c2cc(Br)c(F)cc2C)=C(O)C12CCN(OC)CC2 [Compound P2.89] |  |  | 64 to 67 °C |  |
| CON1CCC2(CC1)C(=O)C(Cl)(c1c(C)cc(C)cc1C)C(=O)N2OC1CCOC1 (centres unmarked) [Compound P1.11] | ≥ 80 | ≤ 10 |  | mortality at 400 ppm [2]: > 80% |
| COCCON1C(=O)C(c2c(C)cc(Cl)cc2C)=C(O)C12CCN(OC)CC2 [Compound P2.101] |  |  | 161 to 164 °C |  |
| CON1CCC2(CC1)C(O)=C(c1c(C)cc(C)cc1C)C(=O)N2OCC1CCCCC1 [Compound P2.96] |  |  | 169 to 172 °C |  |
| CON1CCC2(CC1)C(=O)C(Cl)(c1c(C)cc(C)cc1C)C(=O)N2OCC1CCCC1 (centres unmarked) [Compound P1.4] | ≥ 80 | ≤ 10 |  |  |
| CON1CCC2(CC1)C(O)=C(c1cc(Br)c(C)cc1C)C(=O)N2OC [Compound P2.75] |  |  | 86 to 87 °C |  |
| COCCON1C(=O)C(c2cc(Br)c(C)cc2C)=C(O)C12CCN(OC)CC2 [Compound P2.73] |  |  | 63 to 64 °C |  |
| CON1CCC2(CC1)C(O)=C(c1c(C)cc(C)cc1C)C(=O)N2OCCOC1CCCCO1 (centres unmarked) [Compound P2.22] |  |  | 135 to 137 °C |  |
| CON1CCC2(CC1)C(=O)C(Cl)(c1c(C)cc(C)cc1C)C(=O)N2OCC1CCOC1 (centres unmarked) [Compound P1.9] | ≥ 80 | ≤ 10 |  | mortality at 400 ppm [1]: > 80%; mortality at 400 ppm [2]: > 80% |
| CON1CCC2(CC1)C(O)=C(c1c(C)cc(Cl)cc1C)C(=O)N2OC [Compound P2.102] |  |  | 88 to 92 °C |  |
| COCON1C(=O)C(Cl)(c2cc(C)ccc2C)C(=O)C12CCN(OC)CC2 (centres unmarked) [Compound P1.1, 3-Chloro-3-(2,5-dimethyl-phenyl)-8-methoxy-1-methoxymethoxy-1,8-diaza-spiro[4.5]decane-2,4-dione] | ≥ 80 | ≤ 10 |  | mortality at 400 ppm [1]: > 80%; mortality at 400 ppm [2]: > 80% |
| COCON1C(=O)C(c2c(C)cc(-c3ccc(Cl)cc3)cc2C)=C(O)C12CCN(OC)CC2 [Compound P2.15, 3-(4′-Chloro-3,5-dimethyl-biphenyl-4-yl)-4-hydroxy-8-methoxy-1-methoxymethoxy-1,8-diaza-spiro[4.5]dec-3-en-2-one] |  |  | 128 °C (dec.) |  |
| CCON1C(=O)C(Cl)(c2c(C)cc(C)cc2C)C(=O)C12CCN(OC)CC2 (centres unmarked) [Compound P1.3] | ≥ 80 | ≤ 10 |  | mortality at 400 ppm [1]: > 80%; mortality at 400 ppm [2]: > 80%; mortality at 400 ppm [5]: > 80% |
| COCCON1C(=O)C(Cl)(c2c(C)cc(C)cc2C)C(=O)C12CCN(OC)CC2 (centres unmarked) [Compound P1.2] | ≥ 80 | ≤ 10 |  | mortality at 400 ppm [1]: > 80%; mortality at 400 ppm [2]: > 80% |
| COCCON1C(=O)C(Cl)(c2cc(C)c(C)cc2Cl)C(=O)C12CCN(OC)CC2 (centres unmarked) [Compound P1.7, 3-Chloro-3-(2-chloro-4,5-dimethyl-phenyl)-8-methoxy-1-(2-methoxy-ethoxy)-1,8-diaza-spiro[4.5]decane-2,4-dione] | ≥ 80 | ≤ 10 |  | mortality at 400 ppm [1]: > 80%; mortality at 400 ppm [2]: > 80% |
| CON1CCC2(CC1)C(O)=C(c1c(C)cc(Cl)cc1C)C(=O)N2O [Compound P2.103, 3-(4-Chloro-2,6-dimethyl-phenyl)-1,4-dihydroxy-8-methoxy-1,8-diaza-spiro[4.5]dec-3-en-2-one] |  |  | 228 to 231 °C |  |
| CON1CCC2(CC1)C(=O)C(c1c(C)ccc(Cl)c1C)([N+](=O)[O-])C(=O)N2OC (centres unmarked) [Compound P1.8, 3-(3-Chloro-2,6-dimethyl-phenyl)-1,8-dimethoxy-3-nitro-1,8-diaza-spiro[4.5]decane-2,4-dione] | ≥ 80 | ≤ 10 |  |  |
| COCCON1C(=O)C(c2cc(Br)c(F)cc2C)=C(O)C12CCN(OC)CC2 [Compound P2.87] |  |  | 71 to 74 °C |  |
| CON1CCC2(CC1)C(=O)C(Cl)(c1cc(Br)c(C)cc1C)C(=O)N2OC (centres unmarked) [Compound P1.12] | ≥ 80 | ≤ 10 |  |  |
| COCON1C(=O)C(c2c(C)cc(Cl)cc2C)=C(O)C12CCN(OC)CC2 [Compound P2.104] |  |  | 176 to 178 °C |  |
| CON1CCC2(CC1)C(=O)C(Cl)(c1c(C)cc(C)cc1C)C(=O)N2OC1CCCCC1 (centres unmarked) [Compound P1.6] | ≥ 80 | ≤ 10 |  |  |
| CON1CCC2(CC1)C(O)=C(c1c(C)cc(Cl)cc1C)C(=O)N2OC1CCCO1 (centres unmarked) [Compound P2.105] |  |  | 137 to 139 °C |  |
| COCON1C(=O)C(c2c(F)ccc(C)c2Cl)=C(O)C12CCN(OC)CC2 [Compound P2.60] |  |  | 155 to 158 °C |  |
